Paper PMC7351026, “Serum Half-Lives for Short- and Long-Chain Perfluoroalkyl Acids after Ceasing Exposure from Drinking Water Contaminated by Firefighting Foam” (Environmental Health Perspectives, 2020)
Read-outs that look alike come from different tables or passages of the source.

Assays:
Serum/water ratio = format: in vivo, human; conditions: median serum level of first samples (26 employees) divided by airport drinking-water level
Method: The ratio of serum and water concentration for each PFAS (serum/water ratio) was calculated based on median serum level in the first serum sample obtained from all 26 airport employees divided by the drinking-water concentration. This ratio is an indicator of PFAS accumulation in body.

[1] = Urine/serum ratio in paired samples; format: in vivo, human; conditions: mean of four paired samplings per subject, 17 airport employees
Method: (§1) Urinary PFAS concentrations were specific-gravity adjusted. The ratio of urine and serum concentration for each PFAS (urine/serum ratio) at each sampling was calculated based on PFAS concentrations in paired serum and urine samples from 17 employees. Then the personal average urine/serum ratio was calculated using the mean value of repeated samplings for each employee.

[2] = PFAS levels in urine samples of airport employees, specific-gravity adjusted (LC/MS/MS); format: in vivo, human
Method: Only one employee provided a single urine sample. […] All employees provided written informed consent.
The samples were thawed 1–2 h, then mixed by vortex shaker and manual turning. […] For the urine samples, 50μL urine was mixed with 25μL of methanol and 25μL of a 50% acetonitrile solution containing isotopically labeled internal standards (see Table S1). Then samples were shaken vigorously for 30 min and centrifuged at 3,000×g for 10 min at room temperature.
Aliquots of 20μL of the sample were analyzed using LC/MS/MS. […] The analysis was performed in negative ion mode. The ion source temperature was at 350°C.
as §1

[3] = Population average serum elimination rate and half-life (linear mixed model, one compartment, first-order); conditions: population average; for half-life: human, serum, oral
In short: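 Log-transformed serum PFAS fitted with a linear mixed model (random intercept only; age and sex as covariates), assuming one-compartment first-order elimination. Time counted in days from clean-water supply to first sampling. k is the negative average slope; half-life = ln2/k; sensitivity run after subtracting reference-population median background.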

[4] = cited from earlier work; for Estimated half-life (geometric mean): Chinese population, from renal clearance of single paired serum and urine samples, ref Zhang et al. 2013
[5] = Individual serum elimination rate and half-life (linear regression per employee); conditions: individual estimate; for half-life: human, serum, oral, HL (half-life)
In short: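 One-compartment, first-order model: for each employee and PFAS, the slope β of log serum concentration versus elapsed days (from clean water supply, over five samplings) gave k = −β and half-life = ln2/k. A positive slope left the half-life undetermined.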

[6] = 2nd sampling (October 2018), count 17
[7] = 3rd sampling (November, 2018), count 16
[8] = 4th sampling (December 2018), count 14
[9] = 5th sampling (January 2019), count 12

For `O=C(O)C(F)(F)C(F)(F)C(F)(F)C(F)(F)C(F)(F)C(F)(F)F` [PFHpA, perfluoroheptanoic acid], the Serum/water ratio (Serum/water ratio) was 4.74, the “Personal average urine/serum ratio, median (range)” value [1] was 0.086 (0.018–0.32) and the “Specific gravity adjusted urinary level, 25 percentile” value [2, 6] was 0.02 ng/mL. The “Specific gravity adjusted urinary level, 75 percentile” value [2, 6] was 0.04 ng/mL, the “Specific gravity adjusted urinary level, Max” value [2, 6] was 0.05 ng/mL and the “Specific gravity adjusted urinary level, Median” value [2, 6] was 0.03 ng/mL. For the same molecule, the “Specific gravity adjusted urinary level, Min” value [2, 6] was “< LOD”, the “Specific gravity adjusted urinary level, 25 percentile” value [2, 7] was 0.01 ng/mL and the “Specific gravity adjusted urinary level, 75 percentile” value [2, 7] was 0.03 ng/mL. The “Specific gravity adjusted urinary level, Max” value [2, 7] was 0.08 ng/mL, the “Specific gravity adjusted urinary level, Median” value [2, 7] was 0.02 ng/mL and the “Specific gravity adjusted urinary level, Min” value [2, 7] was “< LOD”. For the same molecule, the “Specific gravity adjusted urinary level, 25 percentile” value [2, 8] was 0.01 ng/mL, the “Specific gravity adjusted urinary level, 75 percentile” value [2, 8] was 0.03 ng/mL and the “Specific gravity adjusted urinary level, Max” value [2, 8] was 0.06 ng/mL. The “Specific gravity adjusted urinary level, Median” value [2, 8] was 0.02 ng/mL, the “Specific gravity adjusted urinary level, Min” value [2, 8] was “< LOD” and the “Specific gravity adjusted urinary level, 25 percentile” value [2, 9] was “< LOD”. For the same molecule, the “Specific gravity adjusted urinary level, 75 percentile” value [2, 9] was 0.03 ng/mL, the “Specific gravity adjusted urinary level, Max” value [2, 9] was 0.06 ng/mL and the “Specific gravity adjusted urinary level, Median” value [2, 9] was 0.02 ng/mL. The “Specific gravity adjusted urinary level, Min” value [2, 9] was “< LOD”, the “Specific gravity adjusted urine level, median (range)” value ([2]; second to fifth samplings, 17 airport employees) was 0.025 ( <LOD –0.080) ng/mL and the half-life ([3]; Average serum half-life, linear mixed model with original serum levels, 17 airport employees after end of drinking-water exposure) was 62 days. For the same molecule, the half-life ([3]; Half-life (95% CI), model with original serum levels, age and sex as covariates) was 62.1 days, the “Constant elimination rate (95% CI)” value ([3]; model with original serum levels, age and sex as covariates) was 4.11 (3.13, 5.09) yearly and the “Estimated half-life (geometric mean)” value ([4]; older females plus males) was 1.0 y. For the same molecule, the “Estimated half-life (geometric mean)” value ([4]; young females) was 0.82 y, the “First-order apparent elimination half-life (geometric mean)” value ([4]; whole blood, five ski wax technicians, 7 months follow-up, ref Russell et al. 2015a) was 70 days and the half-life ([5]; subject 1, 5 samples) was 110 days. It also gave a half-life ([5]; subject 2, 5 samples) of 73 days, a half-life ([5]; subject 3, 5 samples) of 146 days and a half-life ([5]; subject 4, 5 samples) of 73 days. The half-life ([5]; subject 5, 5 samples) was 183 days, the half-life ([5]; subject 6, 4 samples) was 73 days and the half-life ([5]; subject 7, 5 samples) was 36.5 days. For the same molecule, the half-life ([5]; subject 8, 5 samples) was 36.5 days, the half-life ([5]; subject 9, 5 samples) was 36.5 days and the half-life ([5]; subject 10, 5 samples) was 110 days. The half-life ([5]; subject 11, 5 samples) was 110 days, the half-life ([5]; subject 12, 5 samples) was 36.5 days and the half-life ([5]; subject 13, 5 samples) was 36.5 days. For the same molecule, the half-life ([5]; subject 14, 4 samples) was 36.5 days, the half-life ([5]; subject 15, 5 samples) was 73 days and the half-life ([5]; subject 16, 5 samples) was 256 days. It also gave a half-life ([5]; subject 17, 5 samples) of 36.5 days, an Elimination rate ([5]; subject 1, 5 samples) of 2.1 yearly and an Elimination rate ([5]; subject 2, 5 samples) of 3.7 yearly. For the same molecule, the Elimination rate ([5]; subject 3, 5 samples) was 1.7 yearly, the Elimination rate ([5]; subject 4, 5 samples) was 3.2 yearly and the Elimination rate ([5]; subject 5, 5 samples) was 1.3 yearly. The Elimination rate ([5]; subject 6, 4 samples) was 4.1 yearly, the Elimination rate ([5]; subject 7, 5 samples) was 4.6 yearly and the Elimination rate ([5]; subject 8, 5 samples) was 5.4 yearly. It also gave an Elimination rate ([5]; subject 9, 5 samples) of 7.8 yearly, an Elimination rate ([5]; subject 10, 5 samples) of 2.2 yearly and an Elimination rate ([5]; subject 11, 5 samples) of 2.6 yearly. The Elimination rate ([5]; subject 12, 5 samples) was 6.7 yearly, the Elimination rate ([5]; subject 13, 5 samples) was 5.4 yearly and the Elimination rate ([5]; subject 14, 4 samples) was 6.6 yearly. The Elimination rate ([5]; subject 15, 5 samples) was 3.9 yearly, the Elimination rate ([5]; subject 16, 5 samples) was 0.9 yearly and the Elimination rate ([5]; subject 17, 5 samples) was 5.2 yearly.
